Assay: Solubility of the formulation components in water and alcohol
Format: physicochemical
Details: 200 proof ethanol, filtered through a 0.45 micrometer PTFE filter
Description: Dyes can also be used and chosen to be soluble in both water and alcohol to produce a dark colored solution upon extraction and filtering as a visual deterrent to abuse. The formulation can include the following components listed in the Table 8 below, including a number of different dyes.

Question: With `CCN(Cc1cccc(S(=O)(=O)[O-])c1)c1ccc(C(=C2C=CC(=[N+](CC)Cc3cccc(S(=O)(=O)[O-])c3)C=C2)c2ccccc2S(=O)(=O)[O-])cc1.[Na+].[Na+]` [FD&C Blue #1] as the compound, how does the “Alcohol Solubility (Tested)” value read?
Answer: The value was “Yes”.

Question: For `COc1ccc2c3c1O[C@H]1C(=O)CC[C@@]4(O)[C@@H](C2)N(C)CC[C@]314.Cl` [Oxycodone HCl, reference compound], which “Alcohol Solubility (Tested)” value is on record?
Answer: Its value is “Yes”.

Question: For `COc1cc(S(=O)(=O)[O-])c(C)cc1N=Nc1c(O)ccc2cc(S(=O)(=O)[O-])ccc12.[Na+].[Na+]` [FD&C Red #40], which “Alcohol Solubility (Tested)” value is on record?
Answer: Its value is “Yes”.
